{"source": "patent US20240165196A1", "about": "“Beta-Lactamase Inhibitors” (VIB VZW, priority 2021, published 2024)", "key": {"SHV-11": {"target": "T1, SHV-11 (Klebsiella pneumoniae, UniProt P0AD64)", "T1 construct": "DNA TEM (870 bp) or SHV (894 bp) were each sub-cloned into a PUC57 vector cloning site NdeI/XhoI; His-tag (N); TEV cleavage site (N); made in house; host or cells: E. coli BL21 (DE3)", "T1 sequence (P0AD64 22-286 L31Q)": "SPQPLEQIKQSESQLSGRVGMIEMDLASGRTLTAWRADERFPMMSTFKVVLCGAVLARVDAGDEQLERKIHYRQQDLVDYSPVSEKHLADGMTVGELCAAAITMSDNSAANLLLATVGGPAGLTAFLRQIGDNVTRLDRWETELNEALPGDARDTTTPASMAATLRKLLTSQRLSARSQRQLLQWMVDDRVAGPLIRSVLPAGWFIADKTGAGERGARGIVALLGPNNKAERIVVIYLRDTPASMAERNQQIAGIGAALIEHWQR", "test": "thermal denaturation with light scattering (aggregation) in presence of excess tazobactam", "format": "biochemical", "settings": "SHV-11, excess of tazobactam"}, "TEM-1": {"target": "T2, TEM-1 (Escherichia coli, UniProt P62593)", "T2 construct": "DNA TEM (870 bp) or SHV (894 bp) were each sub-cloned into a PUC57 vector cloning site NdeI/XhoI; His-tag (N); TEV cleavage site (N); made in house; host or cells: E. coli BL21 (DE3)", "T2 sequence (P62593 24-286 limits assumed)": "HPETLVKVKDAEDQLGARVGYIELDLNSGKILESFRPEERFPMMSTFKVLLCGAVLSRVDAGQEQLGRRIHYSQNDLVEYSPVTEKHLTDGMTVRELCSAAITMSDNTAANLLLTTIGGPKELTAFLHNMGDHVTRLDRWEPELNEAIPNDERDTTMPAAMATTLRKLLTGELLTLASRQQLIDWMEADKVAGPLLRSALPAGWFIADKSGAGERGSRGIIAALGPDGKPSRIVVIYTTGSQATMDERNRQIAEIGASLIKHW", "test": "thermal denaturation with right-angle/static light scattering (aggregation) in presence of beta-lactamase inhibitors", "format": "biochemical, E. coli", "excerpt": "(FIG. 1E) Heat denaturation of TEM-1 monitored by intrinsic fluorescence plotted as the BaryCentric Mean (BCM) of the fluorescence emission spectrum in the presence (red) and absence (blue) of tazobactam. […] (FIG. 1F) Temperature-dependent evolution of the Right-Angle Light Scattering (RALS) intensity measured simultaneously with the data in FIG. 1G to monitor protein aggregation. […] (FIGS. 1G, 1H, 1I, and 1J) Same data as in FIG. 1F, but showing a dose-titration of different beta-lactamase inhibitors: tazobactam (FIG. 1G), clavulanate (FIG. 1H), vaborbactam (FIG. 1I) and avibactam (FIG. 1J). Each curve a single experiment, which was repeated in triplicate.\nThen, we performed a thermal denaturation whilst simultaneously monitoring the intrinsic fluorescence as a measure of the folding status of the molecule (FIG. 1E), and the static light scattering as a measure of aggregation (FIG. 1F)."}, "[1]": {"tested_on": "uro-pathogenic E. coli strain (UPEC strain blaTEM-1)", "test": "mouse Urinary Tract Infection (UTI) model", "format": "in vivo", "settings": "30 mg/kg ampicillin plus 10 mg/kg test substance; 24 h", "protocol": "FIGS. 4A-4K. […] IV—Intravenous, IP—Intraperitoneal, SC—Subcutaneously. The data shown is from a single experiment with 4 animals per group. […] (ns—non significant, #—P>0.05, *—P≤0.05, ***—P≤0.01, ****—P≤0.001). (FIG. 4G) FICI plot as in FIG. 2, for the E. coli strains indicated and the combination of penicillin and the TEM3.2 peptide. […] (FIG. 4J) Same as FIG. 4H for peptide BGAL. (FIG. 4K) Same as FIG. 4H for peptide P33.\nVehicle alone (0.9% NaCl) was also administered (IV).\nTo test the efficacy of the peptides, urinary tract infection model was performed as described previously^65. Briefly, female C57BL/6Jax mice female mice were deprived from water for at least one hour. […] Mice were slowly inoculated urethrally with 50 μL of a bacterial suspension slowly (10^8 CFU/mouse) using a sterile catheter (The plastic intravenous cannula of the paediatric intravenous-access cannula (GS391350) in the bladder over 5 s in order to avoid vesicoureteral reflux. The catheter was then removed directly after inoculation. After surgery, the animals were visually monitored for full recovery. After 1 h post-inoculation, all mice received ampicillin (30 mg/kg_PO-orally) and at the same time 3 groups of animals received the peptides via different administration routes (10mg/kg_IV—Intravenous; IP—Intraperitoneal or SC—sub-cutaneous) and the positive control groups received tazobactam (10 mg/Kg, PO). […]"}, "[2]": {"tested_on": "TEM variants (TEM15, TEM30, TEM52, TEM10, TEM155)", "test": "aggregation (RALS temperature ramp) of recombinant TEM variants in presence and absence of tazobactam", "format": "biochemical", "settings": "presence versus absence of tazobactam", "description": "FIGS. 2A-2M. (FIG. 2A) TEM mutations and their effects on stability (total energy) as predicted by FoldX. […] Dashed line indicates a total energy difference of 0.5 kcal/mol, the FoldX cut-off above which mutations are considered to be destabilizing. (FIG. 2B) Barplot mapping mutations in (FIG. 2A) to the TEM sequence and indicating occurrence. […] The bar heights correspond to the number of times a mutation occurs across different TEM variants (right-hand y-axis). The color coding is identical to that in (FIG. 2A). Red line indicates the TANGO scores (indicated on the left-hand y-axis), with peaks corresponding to APRs. (FIG. 2C) Mapping of mutations in (FIG. 2A) and (FIG. 2B) to the TEM structure (pdb 1xpb). Protein surface is shown in gray, color coding of mutations is identical to (FIG. 2A) and (FIG. 2B). (FIGS. 2D, 2E, and 2F) Temperature-dependent evolution of the Right-Angle Light Scattering (RALS) intensity during a temperature ramp, similar as in FIG. 1F for key mutants of TEM1, namely TEM-10 (FIG. 2D), TEM-30 (FIG. 2E) and TEM-155 (FIG. 2F). Experiments were shown in triplicate, single repeat is shown. (FIG. 2G) Schematic representation of the structure of the peptides. APR—Aggregation Prone Region, R—Arginine. (FIG. 2H) Ribbon representation of the superposition of the crystal structures of TEM (green, pdb id 1bt5) and SHV (blue, pdb id 1shv). […]"}, "E. coli strain UZ_TEM104": {"tested_on": "E. coli strain UZ_TEM104", "format": "cell-based", "settings": "additive at fixed 50 μg/mL"}}, "data": [{"compound": "C[C@]1(Cn2ccnn2)[C@H](C(=O)O)N2C(=O)C[C@H]2S1(=O)=O", "note": "[tazobactam]", "values": [{"measurement": "aggregation onset temperature Tagg", "setting": "SHV-11", "value": "increase"}, {"measurement": "aggregation of the enzyme (static light scattering), dose-response", "setting": "TEM-1; TEM-1, dose titration of inhibitor", "value": "reduce the aggregation of the enzyme in a dose-responsive manner"}, {"measurement": "aggregation onset temperature Tagg", "setting": "TEM-1; TEM-1, excess of tazobactam, more marked than for SHV-11", "value": "increase"}, {"measurement": "best reduction of the bacterial load (up to)", "setting": "[1]", "value": 1.8, "unit": "log folds"}, {"measurement": "effect of tazobactam on aggregation of TEM variants", "setting": "[2]", "value": "pharmacological chaperone effect"}, {"measurement": "reduction of the MIC of penicillin G", "setting": "E. coli strain UZ_TEM104", "value": 4, "unit": "fold"}]}]}
